Data as given in patent US20240376056A1, “PHENYL ACETAMIDE BASED IL-17A MODULATORS AND USES THEREOF” (DiCE Alpha, Inc., priority 2021, published 2024).

biological target: T1, IL-17A/A (Homo sapiens, UniProt Q16552); experiment: HEK-Blue IL-17A/A inhibition assay (SEAP reporter); assay type: cell-based; details: HEK-Blue cells (HEK 293 expressing IL-17RA, IL-17RC, Act1); IL-17A/A stimulation; 20 hours; SEAP read at A630; 4-parameter fit
T1 construct: purchased Genscript Z03228
T1 sequence (Q16552 24-155): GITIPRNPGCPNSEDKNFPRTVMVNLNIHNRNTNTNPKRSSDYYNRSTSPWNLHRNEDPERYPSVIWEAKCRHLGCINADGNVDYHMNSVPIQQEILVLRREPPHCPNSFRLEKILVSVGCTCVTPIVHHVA
Procedure, shortened: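 IC50 from a 4-parameter fit of SEAP signal (Quanti-Blue, A630) after 20 h co-incubation of compound and IL-17A/A. Reporter line: HEK 293 expressing IL-17RA, IL-17RC and Act1 with NFκB-SEAP; compound top final 10, 1 or 0.3 uM, DMSO 0.1% final.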

Which IC50 does the source give for `CC(C)n1nccc1C(=O)N[C@H](C(=O)Nc1ccc([C@H](C)C(=O)NC2(C(F)(F)F)COC2)cc1F)C(C1CC1)C1CC1` [Compound 43, N-((S)-1.1-dicyclopropyl-3-((2-fluoro-4-((S)-1-oxo-1-((3-(trifluoromethyl)oxetan-3-yl)amino)propan-2-yl)phenyl)amino)-3-oxopropan-2-yl)-1-isopropyl-1H-pyrazole-5-carboxamide] here?
The IC50 was > 1 µM.

For `CC(C)n1nccc1C(=O)N[C@H](C(=O)Nc1ccc([C@H](C)C(=O)NCC(F)(F)C(F)(F)F)cc1F)C(C1CC1)C1CC1` [Compound 44, N-((S)-1,1-dicyclopropyl-3-((2-fluoro-4-((S)-1-oxo-1-((2,2,3,3,3-pentafluoropropyl)amino)propan-2-yl)phenyl)amino)-3-oxopropan-2-yl)-1-isopropyl-1H-pyrazole-5-carboxamide], which IC50 is on record?
The IC50 was 0.1 to 1 µM.

For `CC(C)n1nccc1C(=O)N[C@H](C(=O)Nc1ccc([C@H](C)C(=O)N2CCOCCC2C(F)(F)F)cc1F)C(C1CC1)C1CC1` (stereo partly drawn) [Compound 45, N-((2S)-1,1-dicyclopropyl-3-((2-fluoro-4-((2S)-1-oxo-1-(5-(trifluoromethyl)-1,4-oxazepan-4-yl)propan-2-yl)phenyl)amino)-3-oxopropan-2-yl)-1-isopropyl-1H-pyrazole-5-carboxamide], which IC50 is on record?
Its IC50 is 0.1 to 1 µM.

With `CC(C)n1nccc1C(=O)N[C@H](C(=O)Nc1ccc([C@H](C)C(=O)NC2(C(F)(F)F)CN(C(=O)OC(C)(C)C)C2)cc1F)C(C1CC1)C1CC1` [Compound 46, tert-butyl 3-((S)-2-(4-((S)-3,3-dicyclopropyl-2-(1-isopropyl-1H-pyrazole-5-carboxamido)propanamido)-3-fluorophenyl)propanamido)-3-(trifluoromethyl)azetidine-1-carboxylate] as the molecule, how does the IC50 read?
Its IC50 is > 1 µM.

For `CC(C)n1nccc1C(=O)N[C@H](C(=O)Nc1ccc([C@H](C)C(=O)N2CC(F)CC2C(F)(F)F)cc1F)C(C1CC1)C1CC1` (stereo partly drawn) [Compound 47, N-((2S)-1,1-dicyclopropyl-3-((2-fluoro-4-((2S)-1-(4-fluoro-2-(trifluoromethyl)pyrrolidin-1-yl)-1-oxopropan-2-yl)phenyl)amino)-3-oxopropan-2-yl)-1-isopropyl-1H-pyrazole-5-carboxamide], which IC50 is on record?
Its IC50 is < 0.1 µM.

Which IC50 does the source give for `CC(C)n1nccc1C(=O)N[C@H](C(=O)Nc1ccc([C@H](C)C(=O)NCC(F)(F)F)cc1F)C1CCC(F)(F)CC1` [Compound 50, N-((S)-1-(4,4-difluorocyclohexyl)-2-((2-fluoro-4-((S)-1-oxo-1-((2,2,2-trifluoroethyl)amino)propan-2-yl)phenyl)amino)-2-oxoethyl)-1-isopropyl-1H-pyrazole-5-carboxamide] here?
The IC50 was 0.1 to 1 µM.

`CC(C)n1nccc1C(=O)N[C@H](C(=O)Nc1ccc([C@H](C)C(=O)N(C)CC(F)(F)F)cc1F)C1CCC(F)(F)CC1` [Compound 51, N-((S)-1-(4,4-difluorocyclohexyl)-2-((2-fluoro-4-((S)-1-(methyl(2,2,2-trifluoroethyl)amino)-1-oxopropan-2-yl)phenyl)amino)-2-oxoethyl)-1-isopropyl-1H-pyrazole-5-carboxamide] was tested. Which IC50 did it give?
The IC50 was 0.1 to 1 µM.

For `CC(C)n1nccc1C(=O)N[C@H](C(=O)Nc1ccc([C@H](C)C(=O)NC2(C(F)(F)F)CNC2)cc1F)C(C1CC1)C1CC1` [Compound 52, N-((S)-1.1-dicyclopropyl-3-((2-fluoro-4-((S)-1-oxo-1-((3-(trifluoromethyl)azetidin-3-yl)amino)propan-2-yl)phenyl)amino)-3-oxopropan-2-yl)-1-isopropyl-1H-pyrazole-5-carboxamide], which IC50 is on record?
Its IC50 is > 1 µM.

Which IC50 does the source give for `CC(C)n1nccc1C(=O)N[C@H](C(=O)Nc1ccc([C@H](C)C(=O)N[C@H](C)C(F)(F)F)cc1F)C(C1CC1)C1CC1` [Compound 54, N-((S)-1,1-dicyclopropyl-3-((2-fluoro-4-((S)-1-oxo-1-(((R)-1,1,1-trifluoropropan-2-yl)amino)propan-2-yl)phenyl)amino)-3-oxopropan-2-yl)-1-isopropyl-1H-pyrazole-5-carboxamide] here?
Its IC50 is > 1 µM.

`CC(C)n1nccc1C(=O)N[C@H](C(=O)Nc1ccc([C@H](C)C(=O)N[C@@H](C)C(F)(F)F)cc1F)C(C1CC1)C1CC1` [Compound 55, N-((S)-1,1-dicyclopropyl-3-((2-fluoro-4-((S)-1-oxo-1-(((S)-1,1,1-trifluoropropan-2-yl)amino)propan-2-yl)phenyl)amino)-3-oxopropan-2-yl)-1-isopropyl-1H-pyrazole-5-carboxamide] was tested. Which IC50 did it give?
The IC50 was 0.1 to 1 µM.

`CC(C)n1nccc1C(=O)N[C@H](C(=O)Nc1ccc([C@H](C)C(=O)N2CCOc3ccccc3C2C(F)(F)F)cc1F)C(C1CC1)C1CC1` (stereo partly drawn) [Compound 56, N-((2S)-1,1-dicyclopropyl-3-((2-fluoro-4-((2S)-1-oxo-1-(5-(trifluoromethyl)-2,3-dihydrobenzo[f][1,4]oxazepin-4(5H)-yl)propan-2-yl)phenyl)amino)-3-oxopropan-2-yl)-1-isopropyl-1H-pyrazole-5-carboxamide] was tested. Which IC50 did it give?
The IC50 was 0.1 to 1 µM.

Which IC50 does the source give for `CC(C)n1nccc1C(=O)N[C@H](C(=O)Nc1ccc([C@H](C)C(=O)NCC(C)(F)F)cc1F)C(C1CC1)C1CC1` [Compound 57, N-((S)-1,1-dicyclopropyl-3-((4-((S)-1-((2,2-difluoropropyl)amino)-1-oxopropan-2-yl)-2-fluorophenyl)amino)-3-oxopropan-2-yl)-1-isopropyl-1H-pyrazole-5-carboxamide] here?
The IC50 was 0.1 to 1 µM.

With `CC(C)n1nccc1C(=O)N[C@H](C(=O)Nc1ccc([C@H](C)C(=O)N2C[C@H](F)C[C@H]2C(F)(F)F)cc1F)C(C1CC1)C1CC1` [Compound 58, N-((S)-1,1-dicyclopropyl-3-((2-fluoro-4-((S)-1-((2S,4R)-4-fluoro-2-(trifluoromethyl)pyrrolidin-1-yl)-1-oxopropan-2-yl)phenyl)amino)-3-oxopropan-2-yl)-1-isopropyl-1H-pyrazole-5-carboxamide] as the molecule, how does the IC50 read?
Its IC50 is 0.1 to 1 µM.

With `CC(C)n1nccc1C(=O)N[C@H](C(=O)Nc1ccc([C@H](C)C(=O)N2C[C@@H](F)C[C@@H]2C(F)(F)F)cc1F)C(C1CC1)C1CC1` [Compound 59, N-((S)-1,1-dicyclopropyl-3-((2-fluoro-4-((S)-1-((2R^4S)-4-fluoro-2-(trifluoromethyl)pyrrolidin-1-yl)-1-oxopropan-2-yl)phenyl)amino)-3-oxopropan-2-yl)-1-isopropyl-1H-pyrazole-5-carboxamide] as the molecule, how does the IC50 read?
Its IC50 is > 1 µM.

`CC(C)n1nccc1C(=O)N[C@H](C(=O)Nc1ccc([C@H](C)C(=O)N2C[C@@H](F)C[C@H]2C(F)(F)F)cc1F)C(C1CC1)C1CC1` [Compound 60, N-((S)-1,1-dicyclopropyl-3-((2-fluoro-4-((S)-1-((2S,4S)-4-fluoro-2-(trifluoromethyl)pyrrolidin-1-yl)-1-oxopropan-2-yl)phenyl)amino)-3-oxopropan-2-yl)-1-isopropyl-1H-pyrazole-5-carboxamide] was tested. Which IC50 did it give?
Its IC50 is < 0.1 µM.

How did the IC50 turn out when `CCOC(=O)CC(NC(=O)[C@@H](C)c1ccc(NC(=O)[C@@H](NC(=O)c2ccnn2C(C)C)C(C2CC2)C2CC2)c(F)c1)C(F)(F)F` (stereo partly drawn) [Compound 61, ethyl 3-((S)-2-(4-((S)-3,3-dicyclopropyl-2-(1-isopropyl-1H-pyrazole-5-carboxamido)propanamido)-3-fluorophenyl)propanamido)-4,4,4-trifluorobutanoate] was run?
Its IC50 is < 0.1 µM.

How did the IC50 turn out when `COC(=O)C(NC(=O)[C@@H](C)c1ccc(NC(=O)[C@@H](NC(=O)c2ccnn2C(C)C)C(C2CC2)C2CC2)c(F)c1)C(F)(F)F` (stereo partly shown) [Compound 62] was run?
Its IC50 is 0.1 to 1 µM.

How did the IC50 turn out when `CC(C)n1nccc1C(=O)N[C@H](C(=O)Nc1ccc([C@H](C)C(=O)NC(C(N)=O)C(F)(F)F)cc1F)C(C1CC1)C1CC1` (stereo partly drawn) [Compound 63, N-((2S)-1-((4-((2S)-1-((3-amino-1,1-trifluoro-3-oxopropan-2-yl)amino)-1-oxopropan-2-yl)-2-fluorophenyl)amino)-3,3-dicyclopropyl-1-oxopropan-2-yl)-1-isopropyl-1H-pyrazole-5-carboxamide] was run?
Its IC50 is < 0.1 µM.

With `CC(C)n1nccc1C(=O)N[C@H](C(=O)Nc1ccc([C@H](C)C(=O)N2CC[C@H]2C(F)(F)F)cc1F)C(C1CC1)C1CC1` [Compound 64, N-((S)-1,1-dicyclopropyl-3-((2-fluoro-4-((S)-1-oxo-1-((S)-2-(trifluoromethyl)azetidin-1-yl)propan-2-yl)phenyl)amino)-3-oxopropan-2-yl)-1-isopropyl-1H-pyrazole-5-carboxamide] as the molecule, how does the IC50 read?
Its IC50 is 0.1 to 1 µM.

For `CC(C)n1nccc1C(=O)N[C@H](C(=O)Nc1ccc([C@H](C)C(=O)NCC(F)(F)CO)cc1F)C(C1CC1)C1CC1` [Compound 65, N-((S)-1,1-dicyclopropyl-3-((4-((S)-1-((2,2-difluoro-3-hydroxypropyl)amino)-1-oxopropan-2-yl)-2-fluorophenyl)amino)-3-oxopropan-2-yl)-1-isopropyl-1H-pyrazole-5-carboxamide], which IC50 is on record?
The IC50 was > 1 µM.

For `CC(C)n1nccc1C(=O)N[C@H](C(=O)Nc1ccc([C@H](C)C(=O)NC(c2ccccc2)C(F)(F)F)cc1F)C(C1CC1)C1CC1` (stereo partly drawn) [Compound 66, N-((2S)-1,1-dicyclopropyl-3-((2-fluoro-4-((2S)-1-oxo-1-((2,2,2-trifluoro-1-phenylethyl)amino)propan-2-yl)phenyl)amino)-3-oxopropan-2-yl)-1-isopropyl-1H-pyrazole-5-carboxamide], which IC50 is on record?
The IC50 was 0.1 to 1 µM.

With `CC(C)n1nccc1C(=O)N[C@H](C(=O)Nc1ccc([C@H](C)C(=O)NC(C2CCOC2)C(F)(F)F)cc1F)C(C1CC1)C1CC1` (stereo partly drawn) [Compound 67, N-[(1S)-1-(dicyclopropylmethyl)-2-[2-fluoro-4-[(1S)-1-methyl-2-oxo-2-[(2,2,2-trifluoro-1-tetrahydrofuran-3-yl-ethyl)amino]ethyl]anilino]-2-oxo-ethyl]-2-isopropyl-pyrazole-3-carboxamide] as the molecule, how does the IC50 read?
Its IC50 is < 0.1 µM.
